Measured values from patent US8591908B2, “Immunogen for preparation of therapeutic vaccines or drugs for treatment of hepatitis B and the producing method and use thereof” (Institute of Immunology, PLA, priority 2002, dated 2013).
Ends that are not written are not given here. * marks the point of attachment. Palmitoyl = CCCCCCCCCCCCCCCC(=O)*

Columns and labels:
[1] = system: T2 cells, E6 cells, and HepG2.2.15 cells; test: HBV-specific effective CTL from hepatitis patients' PBMC, cytotoxicity; type: cell-based, human
Protocol: Acute and chronic hepatitis blank control groups, acute hepatitis+test drug group and chronic hepatitis+test drug group were included. The PBMC's from the patients were cultured in vitro and stimulated repetitively to generate antigen-specific effective CTL cells and amplified their number. Then they were used to cytotoxically kill peptide antigen pre-coated T2 cells, E6 cells, and HepG2.2.15 cells.

[2] = Overall functional screening of tri-epitope molecules
Source text: The designed immunogens are synthesized by chemical synthesis methods. Firstly, the most probable structures according to the computer alignment and in theory are synthesized, and then functionally screened in vitro. The screening in vitro comprises: inducing the Th1 activation of peripheral blood mononuclear cells, inducing the HBV-specific CTL, inhibiting HBsAg and HBeAg on HepG2.2.1.5 cells with polypeptide antigen-specific CTL, etc. The designed structures are optimized, improved and synthesized in the next cycle bused on the results of functional tests in vitro. The structures selected out in the in vitro tests are further screened in in vivo tests, the screening comprising: inducing the Th1 activation in Balb/C mice, inhibiting virus replication in HBV transgenic mice, conducting acute toxicity tests in mice, etc. […] Among tri-epitope molecules of different epitope combinations, εPA44 achieves the best effect (see Table 4). The in vivo and in vitro tests indicate that the convalent modification by palmitic acid gives better effects among various chemical modifications.

[3] = system: Balb/c mice; test: Neutralizing antibodies, double-antibody-sandwich and competitive inhibition test; type: in vivo
Protocol: Balb/c mice of 2-3 Months old (both male and female) were divided into 8 groups […], and were immunized with εPA44 at both postpede palmas once a week for three times at different doses: 0.001 nmol, 0.01 nmol, 0.1 nmol, 0.5 nmol, 1 nmol, 10 nmol, 20 nmol respectively, 3 weeks after the immunization, the mice were bled by removing their eyeballs and serums were collected. Antibodies were tested by the double-antibody-sandwich method. The specificity was tested by antibody competitive inhibition test using of the 10 world wide available monoclonal antibodies.

[4] = system: Balb/c mice; test: Th1 activation, serum Th1/Th2 cytokines by ELISA; type: in vivo; settings: serum 3 weeks after immunization
Protocol: Balb/c mice (both male and female) of 2-3 Months old were divided into 8 groups, and were immunized with εPA44 at both postpede palmas once a week for three times at different doses: 0.001 nmol, 0.01 nmol, 0.1 nmol, 0.5 nmol, 1 nmol, 10 nmol, 20 nmol, and 40 nmol respectively. 3 weeks after immunization, the mice were bled by removing their eyeballs and serums were collected. Th1/Th2 cytokines were tested by ELISA.

[5] = system: peripheral blood mononuclear lymphocytes of HLA-A2+ healthy person; test: FIG. 2: induction of lymphocyte proliferation, 3H-TdR; type: cell-based, human
Source text: FIG. 2 indicated the effect of inducing the proliferation of lymphocytes.

[6] = system: hepatitis B surface antigen (HBsAg) in HBV transgenic mice; test: HBV transgenic mice: HBsAg in serum, ELISA; type: in vivo; settings: 10th, 20th, 30th day after three immunizations, 10-1000 U/mouse
Protocol: (§1) The levels of cytokines such as IFN-γ, IL-4, etc. in supernatant were measured by the ELISA method, and the activity of the test drug (CH3(CH2)14COKSSQYIKANSKFIGITEAAASIVSPFIPLLGGGDPRVRGLYFPA) (SEQ ID NO:5) for inducing the differentiation of T cells into Th1/Th2 type was analyzed. […] The expression frequency of IFN-γ secreting cells in peripheral blood lymphocytes was measured by the ELI-SPOT method in said supernatant. […] On the 10th, 20th and 30th day after the end of the three immunizations, bloods were removed, serum isolated, and the contents of HBsAg and HBV-DNA in the serum were separately measured by the ELISA method and quantitative PCR method.

[7] = system: human peripheral blood mononuclear cells (PBMCs); test: Proliferation of human PBMCs from normal persons, 3H-TdR; type: cell-based; settings: 0.1 μg, 1 μg and 10 μg/ml with IL-2
Protocol: Anticoagulant peripheral blood was collected from normal persons under sterile conditions, PBMCs were isolated by conventional Ficoll-Hypaque density gradient centrifugation and were cultured in RPMI1640 culture media (containing 10% calf serum, 100 u/ml penicillin-streptomycin, L-glutamine) in vitro on 24-well culture plates at the cell concentration of 10^6/ml. Blank control group, test group and Pre-S(2) control group were included, to which IL-2 (30 IU/ml) and test drug (0.1 μg/ml, 1 μg/ml, 10 μg/ml) were added. After the cells were cultured for 6 days, IL-2 and the test drug were added at the same dose to stimulate the cells again, and then 3H-TdR (1 uCi/ml) was added. After the cells were further cultured for 18 hours, they were collected and tested by liquid scintillation.

[8] = system: HBV DNA in HBV transgenic mice; test: HBV transgenic mice: HBV DNA in serum, quantitative PCR; type: in vivo; settings: 10th, 20th, 30th day after three immunizations, 10-1000 U/mouse
Protocol: as §1

[9] = pI stated in the formulation description; type: physicochemical; settings: stated without method in formulation example 39
[10] = Stability in different solution systems (RP-HPLC); type: physicochemical
Source text: (§2) εPA44 was soluble and stable in DMSO, but poorly soluble and stable in other solutions (see Table 5). Thus, DMSO was used as the mobile phase for SEC.

[11] = Solubility in different solution systems; type: physicochemical
Source text: as §2

[12] = 50% Ethanol-10 mmol/L phosphoric acid

K(Palmitoyl)SSQYIKANSKFIGITEAAAFLPSDFFPSVGGGDPRVRGLYFPA-OH [SEQ ID NO:1, CH3(CH2)14COKSSQYIKANSKFIGITEAAAFLPSDFFPSVGGGDPRVRGLYFPA]
target cell-specific lysis rate ([1]; PBMCs from acute hepatitis patient in convalescent phase): up to 68.6% | target cell-specific lysis rate ([1]; PBMCs from chronic hepatitis patient): up to 42.6% | specific killing of target cells ([1]; PBMCs of hepatitis patients): specifically kill aforesaid three target cell lines | effect among tri-epitope molecules of different epitope combinations [2]: best effect | specificity of induced antibodies ([3]; antibody competitive inhibition test with monoclonal antibodies): HBV neutralizing antibodies | dose inducing the generation of antibody ([3]; serum 3 weeks after immunization): 0.01 nmol | dose inducing the generation of IFN-γ and IL-2 [4]: 0.01 nmol | minimal effective dose ([5]; lymphocyte proliferation): 0.1 ng | range with dose-effect dependence ([5]; lymphocyte proliferation): 0.1 to 10 ng | induction of the proliferation of lymphocytes ([5]; with IL-2, γ-count after 3H-TdR): significantly induce the proliferation of lymphocytes | HBsAg in the serum [6]: decreased in a manner of dose-dependence and time-dependence | proliferation of human PBMCs [7]: stimulated the proliferation of human PBMCs in a manner of dose dependence | HBV-DNA in the serum (copy number, replication level) [8]: obviously decreased in a manner of dose-dependence and time-dependence | pI [9]: 8.1 | Stability ([10]; 50% Acetonitrile-0.1% TFA): Unstable | Stability ([10]; 50% Ethanol-10 mmol/L HCl): Unstable | Stability [10, 12]: Unstable | Stability ([10]; DMSO): Stable* | solubility ([11]; 0.1 mol/L PB (pH 6.8)): 10 µg/mL | solubility ([11]; 2% Tween80-0.1 mol/L PB(pH 6.8)): 80 µg/mL | solubility ([11]; 50% Acetonitrile-0.1% TFA): 1670 µg/mL | solubility ([11]; 50% DMSO): 2530 µg/mL | solubility ([11]; 50% Ethanol-10 mmol/L HCl): 2480 µg/mL | solubility [11, 12]: 2430 µg/mL | solubility ([11]; 50% Methanol-0.1% TFA): 1540 µg/mL | solubility ([11]; DMSO): 11700 µg/mL
